Reference: patent US12090164B2, “Genotype-agnostic rescue of cystic fibrosis with small molecule bicarbonate channels” (The Board of Trustees of the University of Illinois, priority 2017, dated 2024)
“Also recorded” adds a separate entry of the source.

What was measured:
[1] = system: CuFi-4 (G551D/ΔF508) epithelia; test: Basolateral to apical H14CO3- transport; assay type: cell-based, human; conditions: AmB 2 μM, ivacaftor/forskolin 10 μM
Protocol: (§1) Small diameter NuLi and CuFi cultured epithelia were used for this experiment (0.33 cm^2). ^14C-labeled sodium HCO3^− was obtained as a sterile 35.7 mM aqueous solution pH 9.5 (MP Biomedicals 0117441H). All experiments were run less than 2 months post seeding. Fresh USG media was added to the basolateral side prior to experimentation. The apical membrane was treated with 20 μL of vehicle, AmB, or ivacaftor/forskolin as a suspension in perfluorocarbon-72 (Sigma Aldrich), and the cultured epithelia were incubated for 48 hours, 7 days, 14 days, or 28 days at 37° C. in a 5% C02 atmosphere. After the end of the treatment period, 5 μL of a 1.4 mM H^14CO3^− stock solution in USG media was added to the basolateral media. The cultured epithelia were then incubated at 37° C. for 10 minutes. After 10 minutes, the apical membrane of the cultured epithelia was immediately washed with 200 μL of PBS. The ASL wash and a 200 μL aliquot of the basolateral media were diluted in scintillation cocktail and analyzed via liquid scintillation counting (23).

[2] = system: CuFi-1 (ΔF508/ΔF508) epithelia; test: Basolateral to apical H14CO3- transport; assay type: cell-based, human
Protocol: as §1

[3] = 13C NMR H13CO3- efflux from liposomes; assay type: biochemical; conditions: 1:1,000 AmB:lipid, vs DMSO or water vehicle
[4] = system: ASL of primary CF epithelia; Staphylococcus aureus killed; test: ASL antibacterial activity (S. aureus-coated gold grids); assay type: cell-based, human; conditions: 2 μM, 48 h
Protocol: Staphylococcus aureus-coated gold grids were used to measure antibacterial activity of airway epithelial cultures (3, 4). Small diameter primary cultured epithelia were used for this experiment (0.33 cm^2). Bacteria-coated gold TEM grids were placed onto the apical surface of airway epithelia for 1 min after 48 hours of perfluorocarbon (FC-72, Sigma), 2 μM AmB, or 2 μM C35deOAmB treatment. As controls, bacteria-coated grids were also placed in saline or AmB in FC-72 laid over saline to simulate the administration method for 1 minute. After removal, bacteria on the grids were assessed for viability using Live/Dead BacLight Bacterial Viability assay (Invitrogen). Viability was determined in 4-6 fields to determine the percentages of dead bacteria.

[5] = Na+, K+, Cl-, H+ efflux from liposomes; assay type: biochemical; conditions: 1:1000 AmB:lipid, vs DMSO vehicle
Protocol: Palmitoyl oleoyl phosphatidylcholine (POPC) was obtained as a 25 mg/mL solution in CHCl3 from Avanti Polar Lipids (Alabaster, AL) and was stored at −20° C. under an atmosphere of dry argon and used within 3 months. Cholesterol (Sigma Aldrich) was purified by recrystallization from ethanol. NaH^13CO3 was obtained as a white solid from Sigma Aldrich. Sodium, potassium, and chloride measurements were obtained using a Denver Instruments (Denver, CO) Model 225 pH meter equipped with the appropriate ion selective probe inside a Faraday cage. Sodium selective measurements were obtained using an Orion micro sodium electrode (Thermo 9811BN). Potassium selective measurements were obtained with an Orion Potassium Sure-Flow Combination Electrode with Waterproof BNC connector (Thermo 9719BNWP). Chloride selective measurements were obtained using an Orion combination chloride electrode (Thermo 9617BNWP). For sodium efflux experiments, measurements were made on 1.5 mL solutions that were magnetically stirred in 7 mL vials incubated at 23° C. […]
Prior to preparing a lipid film, this solution was warmed to ambient temperature to prevent condensation from contaminating the solution and degrading the lipid film. […] To obtain a sufficient quantity of large unilamellar vesicles (LUVs), at least two independent lipid film preparations were pooled together for the subsequent formation of LUVs. […]

For `C[C@@H]1[C@H](O)[C@@H](C)/C=C/C=C/C=C/C=C/C=C/C=C/C=C/[C@H](O[C@@H]2O[C@H](C)[C@@H](O)[C@H](N)[C@@H]2O)C[C@@H]2O[C@](O)(C[C@@H](O)C[C@@H](O)[C@H](O)CC[C@@H](O)C[C@@H](O)CC(=O)O[C@H]1C)C[C@H](O)[C@H]2C(=O)O` [AmB, amphotericin B], the “H^14CO3^− transepithelial transport” value [1] was “increase H^14CO3-transepithelial transport; also recorded: effective in both genotypes; also recorded: the same increase in rate of bicarbonate efflux; also recorded: increased ASL pH and H^14CO3^− secretion”, the “time for which increase in H^14CO3^− secretion is sustained” value ([2]; AmB 2 μM left on epithelia) was “at least 7 days” and the “basolateral to apical H^14CO3^− transport, apical addition” value ([2]; over 10 minutes, AmB or C35deOAmB 2 μM, ivacaftor/forskolin 10 μM) was “restored normal bicarbonate transport; also recorded: increased the rate of ^14C bicarbonate to match that observed in NuLi epithelia; also recorded: effective in both genotypes; also recorded: increased both”. The “H^13CO3^− efflux from liposomes” value [3] was “AmB is able to facilitate transmembrane bicarbonate efflux; also recorded: Robust and rapid release; also recorded: caused H^13CO3^− efflux; also recorded: AmB is able to facilitate HCO3^− efflux”, the “ASL antibacterial activity (% of S. aureus killed after exposure to ASL)” value [4] was “increased antibacterial activity for a diverse range of patient genotypes; also recorded: nearly doubled ASL bacterial killing; also recorded: restores ASL pH and antibacterial activity” and the “transport of potassium, sodium, chloride, protons across a lipid membrane” value [5] was “known to transport monovalent anions and cations; also recorded: can transport potassium, sodium, chloride, protons and HCO3^−”.
